In the kinase profiling compilation of Christmann-Franck et al. (2016):

What was measured:
Experiment in all cases: KINOMEscan competition binding
Conditions in all cases: compound 10.0 µM
TAOK3 (human) = TAOK3 (human) (UniProt Q9H2K8)
RIPK2 (human) = RIPK2 (human) (UniProt O43353)
PIM2 (human) = PIM2 (human) (UniProt Q9P1W9)
PAK3 (human) = PAK3 (human) (UniProt O75914)
GSK3B (human) = GSK3B (human) (UniProt P49841)
AURKB (human) = AURKB (human) (UniProt Q96GD4)
INSRR (human) = INSRR (human) (UniProt P14616)
MAPK4 (human) = MAPK4 (human) (UniProt P31152)
MKNK2 (human) = MKNK2 (human) (UniProt Q9HBH9)
MYLK2 (human) = MYLK2 (human) (UniProt Q9H1R3)
MUSK (human) = MUSK (human) (UniProt O15146)
ROCK2 (human) = ROCK2 (human) (UniProt O75116)
MAPK1 (human) = MAPK1 (human) (UniProt P28482)
MAP2K3 (human) = MAP2K3 (human) (UniProt P46734)
CSNK2A2 (human) = CSNK2A2 (human) (UniProt P19784)
PIK3CB (human) = PIK3CB (human) (UniProt P42338)
CDK19 (human) = CDK19 (human) (UniProt Q9BWU1)
ULK2 (human) = ULK2 (human) (UniProt Q8IYT8)
CAMK2G (human) = CAMK2G (human) (UniProt Q13555)
KDR (human) = KDR (human) (UniProt P35968)
FRK (human) = FRK (human) (UniProt P42685)
ROS1 (human) = ROS1 (human) (UniProt P08922)
TTK (human) = TTK (human) (UniProt P33981)
SRPK2 (human) = SRPK2 (human) (UniProt P78362)
PIM1 (human) = PIM1 (human) (UniProt P11309)
IKBKB (human) = IKBKB (human) (UniProt O14920)
SIK1 (human) = SIK1 (human) (UniProt P57059)
LTK (human) = LTK (human) (UniProt P29376)
PAK6 (human) = PAK6 (human) (UniProt Q9NQU5)
BMPR2 (human) = BMPR2 (human) (UniProt Q13873)
MAPKAPK2 (human) = MAPKAPK2 (human) (UniProt P49137)
PRKD1 (human) = PRKD1 (human) (UniProt Q15139)
DCLK1 (human) = DCLK1 (human) (UniProt O15075)
AKT2 (human) = AKT2 (human) (UniProt P31751)
FLT3 (human) = FLT3 (human) (UniProt P36888)
MAPKAPK5 (human) = MAPKAPK5 (human) (UniProt Q8IW41)
PRKCD (human) = PRKCD (human) (UniProt Q05655)
MARK3 (human) = MARK3 (human) (UniProt P27448)
CSK (human) = CSK (human) (UniProt P41240)
NEK2 (human) = NEK2 (human) (UniProt P51955)

Chain of INSRR (human) (P14616 whole entry, looked up): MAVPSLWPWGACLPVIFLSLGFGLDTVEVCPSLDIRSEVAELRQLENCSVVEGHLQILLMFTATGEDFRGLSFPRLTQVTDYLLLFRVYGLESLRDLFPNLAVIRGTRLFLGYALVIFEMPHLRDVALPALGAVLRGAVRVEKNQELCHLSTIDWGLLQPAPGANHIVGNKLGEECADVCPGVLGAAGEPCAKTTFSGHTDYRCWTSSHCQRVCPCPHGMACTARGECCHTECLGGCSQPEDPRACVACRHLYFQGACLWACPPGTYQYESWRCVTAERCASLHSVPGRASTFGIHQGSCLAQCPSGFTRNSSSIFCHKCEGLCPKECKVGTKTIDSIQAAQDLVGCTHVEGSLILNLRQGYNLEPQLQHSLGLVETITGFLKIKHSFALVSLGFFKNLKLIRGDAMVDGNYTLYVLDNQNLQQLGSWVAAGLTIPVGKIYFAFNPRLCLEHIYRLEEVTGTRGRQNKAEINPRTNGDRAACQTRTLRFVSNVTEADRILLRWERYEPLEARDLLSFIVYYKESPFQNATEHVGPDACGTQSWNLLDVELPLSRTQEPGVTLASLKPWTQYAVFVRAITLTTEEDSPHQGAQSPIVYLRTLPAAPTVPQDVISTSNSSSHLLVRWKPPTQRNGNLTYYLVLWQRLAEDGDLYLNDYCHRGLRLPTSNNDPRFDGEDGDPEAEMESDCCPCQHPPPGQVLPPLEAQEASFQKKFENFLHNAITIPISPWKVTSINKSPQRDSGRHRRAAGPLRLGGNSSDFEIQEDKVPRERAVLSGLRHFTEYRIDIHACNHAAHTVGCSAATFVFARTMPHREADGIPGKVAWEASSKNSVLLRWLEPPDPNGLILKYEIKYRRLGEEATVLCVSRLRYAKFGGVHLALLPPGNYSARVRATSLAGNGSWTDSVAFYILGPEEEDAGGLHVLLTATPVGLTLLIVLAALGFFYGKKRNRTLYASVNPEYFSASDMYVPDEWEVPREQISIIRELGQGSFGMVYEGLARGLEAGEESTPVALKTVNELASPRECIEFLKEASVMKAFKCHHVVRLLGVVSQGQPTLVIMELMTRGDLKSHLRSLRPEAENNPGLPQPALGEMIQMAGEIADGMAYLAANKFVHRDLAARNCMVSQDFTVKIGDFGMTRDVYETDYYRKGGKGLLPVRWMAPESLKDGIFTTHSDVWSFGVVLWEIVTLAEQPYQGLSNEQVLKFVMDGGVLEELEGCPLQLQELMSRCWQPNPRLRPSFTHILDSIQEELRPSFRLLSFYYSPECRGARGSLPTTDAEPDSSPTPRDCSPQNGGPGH
Chain of ROS1 (human) (P08922 whole entry, looked up): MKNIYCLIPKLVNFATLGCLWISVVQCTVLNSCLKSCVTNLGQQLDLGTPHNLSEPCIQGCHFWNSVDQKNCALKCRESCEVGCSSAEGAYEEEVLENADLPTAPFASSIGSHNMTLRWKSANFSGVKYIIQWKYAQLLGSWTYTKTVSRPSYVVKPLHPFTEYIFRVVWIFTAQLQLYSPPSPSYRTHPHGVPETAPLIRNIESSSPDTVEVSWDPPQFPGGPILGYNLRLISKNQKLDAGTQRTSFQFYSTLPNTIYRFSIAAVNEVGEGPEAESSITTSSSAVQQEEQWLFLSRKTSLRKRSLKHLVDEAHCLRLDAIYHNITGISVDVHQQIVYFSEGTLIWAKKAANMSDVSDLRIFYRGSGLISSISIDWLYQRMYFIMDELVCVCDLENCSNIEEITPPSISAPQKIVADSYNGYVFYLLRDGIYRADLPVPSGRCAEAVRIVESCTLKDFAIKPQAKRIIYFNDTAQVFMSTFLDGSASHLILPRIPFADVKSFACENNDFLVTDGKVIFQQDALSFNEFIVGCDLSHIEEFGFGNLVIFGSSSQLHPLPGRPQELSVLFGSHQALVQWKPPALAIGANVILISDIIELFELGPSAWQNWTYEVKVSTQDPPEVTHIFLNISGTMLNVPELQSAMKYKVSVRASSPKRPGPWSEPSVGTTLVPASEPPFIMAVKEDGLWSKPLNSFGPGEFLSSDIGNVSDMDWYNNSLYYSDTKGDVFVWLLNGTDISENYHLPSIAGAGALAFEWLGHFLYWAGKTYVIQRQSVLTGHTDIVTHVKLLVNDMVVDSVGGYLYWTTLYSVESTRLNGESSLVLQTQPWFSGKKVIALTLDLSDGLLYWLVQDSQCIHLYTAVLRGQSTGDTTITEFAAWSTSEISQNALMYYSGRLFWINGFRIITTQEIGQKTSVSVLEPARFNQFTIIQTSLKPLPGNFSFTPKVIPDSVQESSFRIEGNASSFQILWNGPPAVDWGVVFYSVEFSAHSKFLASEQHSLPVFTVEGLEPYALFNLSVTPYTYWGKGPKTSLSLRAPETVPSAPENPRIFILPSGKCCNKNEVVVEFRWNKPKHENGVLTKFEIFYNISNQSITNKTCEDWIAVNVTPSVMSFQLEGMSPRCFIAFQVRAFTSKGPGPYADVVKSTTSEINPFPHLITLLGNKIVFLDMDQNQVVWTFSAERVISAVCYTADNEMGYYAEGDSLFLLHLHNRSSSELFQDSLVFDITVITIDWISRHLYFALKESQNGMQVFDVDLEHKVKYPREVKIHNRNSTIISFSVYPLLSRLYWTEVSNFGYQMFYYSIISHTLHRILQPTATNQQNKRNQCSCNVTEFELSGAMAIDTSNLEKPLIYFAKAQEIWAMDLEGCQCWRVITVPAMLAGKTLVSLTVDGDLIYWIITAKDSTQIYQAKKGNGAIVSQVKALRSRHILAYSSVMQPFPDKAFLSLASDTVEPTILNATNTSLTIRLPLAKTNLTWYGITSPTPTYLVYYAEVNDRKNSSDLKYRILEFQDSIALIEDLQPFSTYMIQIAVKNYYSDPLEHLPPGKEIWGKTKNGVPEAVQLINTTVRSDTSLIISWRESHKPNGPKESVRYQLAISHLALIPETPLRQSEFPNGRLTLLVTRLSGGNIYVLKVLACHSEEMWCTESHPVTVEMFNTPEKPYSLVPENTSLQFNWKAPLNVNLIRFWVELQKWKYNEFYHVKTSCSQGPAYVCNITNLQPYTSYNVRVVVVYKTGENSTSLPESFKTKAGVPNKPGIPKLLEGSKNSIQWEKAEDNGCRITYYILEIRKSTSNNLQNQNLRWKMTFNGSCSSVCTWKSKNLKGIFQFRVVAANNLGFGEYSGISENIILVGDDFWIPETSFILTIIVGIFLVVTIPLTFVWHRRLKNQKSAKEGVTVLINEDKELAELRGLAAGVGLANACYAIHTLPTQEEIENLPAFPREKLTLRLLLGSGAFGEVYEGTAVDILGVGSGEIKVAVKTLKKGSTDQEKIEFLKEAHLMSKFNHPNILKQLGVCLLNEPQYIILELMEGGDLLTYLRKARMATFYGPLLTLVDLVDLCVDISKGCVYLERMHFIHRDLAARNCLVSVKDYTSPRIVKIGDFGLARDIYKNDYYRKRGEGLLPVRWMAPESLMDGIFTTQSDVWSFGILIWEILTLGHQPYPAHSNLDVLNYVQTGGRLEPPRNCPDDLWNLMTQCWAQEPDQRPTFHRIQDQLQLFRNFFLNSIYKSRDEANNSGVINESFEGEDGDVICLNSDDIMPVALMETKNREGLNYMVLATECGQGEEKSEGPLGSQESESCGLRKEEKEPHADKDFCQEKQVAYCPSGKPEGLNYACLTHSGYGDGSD
Chain of FRK (human) (P42685 whole entry, looked up): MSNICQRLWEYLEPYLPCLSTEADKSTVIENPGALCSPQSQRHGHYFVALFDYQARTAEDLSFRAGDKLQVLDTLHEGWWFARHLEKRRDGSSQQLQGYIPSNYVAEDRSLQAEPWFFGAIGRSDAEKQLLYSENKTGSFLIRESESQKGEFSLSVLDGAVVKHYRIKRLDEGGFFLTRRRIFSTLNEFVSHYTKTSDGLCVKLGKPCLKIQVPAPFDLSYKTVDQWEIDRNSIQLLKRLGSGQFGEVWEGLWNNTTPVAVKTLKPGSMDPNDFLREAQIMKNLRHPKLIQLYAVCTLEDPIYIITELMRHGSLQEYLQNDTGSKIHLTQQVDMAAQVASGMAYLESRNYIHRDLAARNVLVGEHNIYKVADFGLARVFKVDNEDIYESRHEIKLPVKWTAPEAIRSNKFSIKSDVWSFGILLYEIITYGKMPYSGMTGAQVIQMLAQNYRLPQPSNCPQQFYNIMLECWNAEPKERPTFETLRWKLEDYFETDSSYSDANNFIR
Chain of PAK3 (human) (O75914 whole entry, looked up): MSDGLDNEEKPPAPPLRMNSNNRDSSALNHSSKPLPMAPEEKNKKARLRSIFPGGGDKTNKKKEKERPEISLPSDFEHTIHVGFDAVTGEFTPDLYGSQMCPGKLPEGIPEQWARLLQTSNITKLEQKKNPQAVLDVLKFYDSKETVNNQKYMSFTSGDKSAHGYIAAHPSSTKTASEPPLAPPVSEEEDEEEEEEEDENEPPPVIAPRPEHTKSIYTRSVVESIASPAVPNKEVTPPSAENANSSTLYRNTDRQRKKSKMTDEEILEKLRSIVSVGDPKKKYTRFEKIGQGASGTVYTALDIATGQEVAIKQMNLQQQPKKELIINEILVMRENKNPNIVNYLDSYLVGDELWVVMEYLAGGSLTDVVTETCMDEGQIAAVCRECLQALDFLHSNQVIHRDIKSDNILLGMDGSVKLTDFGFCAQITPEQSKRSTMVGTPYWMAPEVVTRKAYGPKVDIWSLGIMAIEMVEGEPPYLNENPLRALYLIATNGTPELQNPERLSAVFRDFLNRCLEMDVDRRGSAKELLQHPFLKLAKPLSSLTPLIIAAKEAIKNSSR
Chain of PIM1 (human) (P11309 whole entry, looked up): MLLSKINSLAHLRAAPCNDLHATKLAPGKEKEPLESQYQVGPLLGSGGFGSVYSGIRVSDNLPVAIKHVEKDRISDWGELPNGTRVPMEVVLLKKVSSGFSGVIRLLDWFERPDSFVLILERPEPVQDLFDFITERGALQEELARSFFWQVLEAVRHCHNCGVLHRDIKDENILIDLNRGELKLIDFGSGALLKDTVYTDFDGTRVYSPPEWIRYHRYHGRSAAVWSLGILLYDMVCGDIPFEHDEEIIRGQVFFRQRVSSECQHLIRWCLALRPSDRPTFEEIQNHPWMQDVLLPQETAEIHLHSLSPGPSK

Row | Structure (SMILES) | kinase still bound, per cent of control (TAOK3 (human)) [%] | kinase still bound, per cent of control (RIPK2 (human)) [%] | kinase still bound, per cent of control (PIM2 (human)) [%] | kinase still bound, per cent of control (PAK3 (human)) [%] | kinase still bound, per cent of control (GSK3B (human)) [%] | kinase still bound, per cent of control (AURKB (human)) [%] | kinase still bound, per cent of control (INSRR (human)) [%] | kinase still bound, per cent of control (MAPK4 (human)) [%] | kinase still bound, per cent of control (MKNK2 (human)) [%] | kinase still bound, per cent of control (MYLK2 (human)) [%] | kinase still bound, per cent of control (MUSK (human)) [%] | kinase still bound, per cent of control (ROCK2 (human)) [%] | kinase still bound, per cent of control (MAPK1 (human)) [%] | kinase still bound, per cent of control (MAP2K3 (human)) [%] | kinase still bound, per cent of control (CSNK2A2 (human)) [%] | kinase still bound, per cent of control (PIK3CB (human)) [%] | kinase still bound, per cent of control (CDK19 (human)) [%] | kinase still bound, per cent of control (ULK2 (human)) [%] | kinase still bound, per cent of control (CAMK2G (human)) [%] | kinase still bound, per cent of control (FRK (human)) [%] | other results
1 | Cn1c(=O)n(-c2ccc(C(C)(C)C#N)cc2)c2c3cc(-c4cnc5ccccc5c4)ccc3ncc21 | 100 | 100 | 100 | 100 | 100 | 100 | 100 | 100 | 100 | 100 | 100 | 100 | 100 | 100 | 100 | 22 | 100 | 100 | 100 | 100 | kinase still bound, per cent of control (KDR (human)): 100%; kinase still bound, per cent of control (ROS1 (human)): 100%; kinase still bound, per cent of control (TTK (human)): 100%; kinase still bound, per cent of control (SRPK2 (human)): 100%; kinase still bound, per cent of control (PIM1 (human)): 100%; kinase still bound, per cent of control (IKBKB (human)): 100%; kinase still bound, per cent of control (SIK1 (human)): 100%; kinase still bound, per cent of control (LTK (human)): 33%; kinase still bound, per cent of control (PAK6 (human)): 100%; kinase still bound, per cent of control (BMPR2 (human)): 100%; kinase still bound, per cent of control (MAPKAPK2 (human)): 100%; kinase still bound, per cent of control (PRKD1 (human)): 100%; kinase still bound, per cent of control (DCLK1 (human)): 100%; kinase still bound, per cent of control (AKT2 (human)): 100%; kinase still bound, per cent of control (FLT3 (human)): 100%; kinase still bound, per cent of control (MAPKAPK5 (human)): 100%; kinase still bound, per cent of control (PRKCD (human)): 100%; kinase still bound, per cent of control (MARK3 (human)): 100%; kinase still bound, per cent of control (CSK (human)): 100%; kinase still bound, per cent of control (NEK2 (human)): 100%
2 | CC[C@@H]1C(=O)N(C)c2cnc(Nc3ccc(C(=O)NC4CCN(C)CC4)cc3OC)nc2N1C1CCCC1 | 100 | 100 | 100 | 100 | 100 | 100 | 100 | 100 | 100 | 100 | 100 | 100 | 100 | 100 | 100 | 100 | 100 | 100 | 100 | 100 | kinase still bound, per cent of control (ROS1 (human)): 28%; kinase still bound, per cent of control (TTK (human)): 6.3%; kinase still bound, per cent of control (SRPK2 (human)): 100%; kinase still bound, per cent of control (PIM1 (human)): 100%; kinase still bound, per cent of control (IKBKB (human)): 100%; kinase still bound, per cent of control (SIK1 (human)): 100%; kinase still bound, per cent of control (LTK (human)): 24%; kinase still bound, per cent of control (PAK6 (human)): 100%; kinase still bound, per cent of control (BMPR2 (human)): 100%; kinase still bound, per cent of control (MAPKAPK2 (human)): 100%; kinase still bound, per cent of control (PRKD1 (human)): 7%; kinase still bound, per cent of control (DCLK1 (human)): 5.4%; kinase still bound, per cent of control (AKT2 (human)): 100%; kinase still bound, per cent of control (FLT3 (human)): 100%; kinase still bound, per cent of control (MAPKAPK5 (human)): 100%; kinase still bound, per cent of control (PRKCD (human)): 100%; kinase still bound, per cent of control (MARK3 (human)): 100%; kinase still bound, per cent of control (CSK (human)): 100%; kinase still bound, per cent of control (NEK2 (human)): 17%
